Assay results from publication PMC11576293, “New series of 4,6-diaryl pyrimidines: facile synthesis and antiproliferative activity as dual EGFR/VEGFR-2 inhibitors” (Frontiers in Chemistry, 2024).
“And” between values parts separate entries of the source, which are not always exact repeats. Equal values may be shown once.

Assays:
[1] = tested on: A-549 cancer cells; experiment: Wound healing assay (migration, wound closure); assay type: cell-based, human; settings: A-549 cells
Method: Wound healing assay is a simple, reproducible, and non-expensive method to study cancer cell migration in vitro ([Rodriguez et al., 2005]). We investigated the wound-healing activities of compounds 22 and 29 in A-549 cancer cells. […] Furthermore, the wound closure percentage achieved 100% after 72 h of treatment with a compound 22, whereas it reached only 80% with a compound 29.

[2] = tested on: Bax; experiment: Bax activation assay; assay type: cell-based, human; settings: for Bax Conc: A-549 cancer cells
Method: 4.2.7. Bax activation assay
Bring all reagents, except the human Bax-α Standard, to room temperature for at least 30 minutes prior to opening. The human Bax-α Standard solution should not be left at room temperature for more than 10 minutes. All standards, controls and samples should be run in duplicate. Refer to the Assay Layout Sheet to determine the number of wells to be used and put any remaining wells with the desiccant back into the pouch and seal the ziploc. Store unused wells at 4 °C. Pipet 100 μL of Assay Buffer into the S0 (0 pg/mL standard) wells. Pipet 100 μL of Standards #1 through #6 into the appropriate wells. Pipet 100 μL of the Samples into the appropriate wells. Tap the plate gently to mix the contents. Seal the plate and incubate at room temperature on a plate shaker for 1 hour at ~500 rpm. Empty the contents of the wells and wash by adding 400 μL of wash solution to every well. Repeat the wash 4 more times for a total of 5 washes. After the final wash, empty or aspirate the wells and firmly tap the plate on a lint free paper towel to remove any remaining wash buffer.
Pipet 100 μL of yellow Antibody into each well, except the Blank. Seal the plate and incubate at room temperature on a plate shaker for 1 hour at ~500 rpm. Empty the contents of the wells and wash by adding 400 μL of wash solution to every well. Repeat the wash 4 more times for a total of 5 washes. After the final wash, empty or aspirate the wells and firmly tap the plate on a lint free paper towel to remove any remaining wash buffer. Add 100 μL of blue Conjugate to each well, except the Blank. Seal the plate and incubate at room temperature on a plate shaker for 30 minutes […]
Pipet 100 μL of Substrate Solution into each well. Incubate for 30 minutes at room temperature on a plate shaker at ~500 rpm. Pipet 100 μL Stop Solution to each well. Blank the plate reader against the Blank wells, read the optical density at 450 nm. Calculate the average net Optical Density (OD) bound for each standard and sample by subtracting the average Blank OD from the average OD for each standard and sample. Using linear graph paper, plot the Average Net OD for each standard versus Bax concentration in each standard. Approximate a straight line through the points.
The concentration of Bax in the unknowns can be determined by interpolation. […]

[3] = tested on: MCF-7 Breast Adenocarcinoma cell line; experiment: Wound healing assay (supplement, Table S3); assay type: cell-based; settings: for Migration rate: Rm=Wi−Wf / t
Method: 4.3. Wound Healing Assay of MCF-7 Breast Adenocarcinoma
MCF-7 Breast Adenocarcinoma cell line was obtained from Nawah Scientific Inc., (Mokatam, Cairo, Egypt). Cells were maintained in DMEM media supplemented with […] of streptomycin, 100 units/mL of penicillin and 10% of heat-inactivated fetal bovine serum in humidified, 5% (v/v) CO2 atmosphere at 37 °C.
4.3.2. Wound healing assay
Cells were plated at a density of 2x10^5/well onto a coated 12-well plate for scratch wound assay and cultured overnight in 5% FBS-DMEM at 37 °C and 5% CO2. On the next day, horizontal scratches were introduced into the confluent monolayer; the plate was washed thoroughly with PBS, control wells were replenished with fresh medium while drug wells were treated with fresh media containing drug 26 and 27. Images were taken using an inverted microscope at the indicated time intervals. The plate was incubated at 37 °C and 5% CO2 in-between time points. The acquired […]
4.4. Wound Healing Assay Calculations
Wound width can be calculated as the average distance between the edges of the scratches; the wound width decreases as cell migration is induced. The results of compounds 26 and 27 were […]
Migration rate is calculated by dividing the time spent in migration according to the following

COc1ccc(CSc2nc(-c3ccc(OC)cc3)cc(-c3cccc(OC)c3)n2)cc1 [Compound 22, 2-(4-Methoxybenzylthio)-6-(3-methoxyphenyl)-4-(4-methoxyphenyl)pyrimidine]
Wound closure % 24 h [1]: 25% | Wound closure % 48 h [1]: 50% | Wound closure % 72 h [1]: 100% | Bax Conc [2]: 294 pg/mL and 294 ± 6 pg/mL

COc1ccc(-c2cc(-c3ccc(Cl)cc3)nc(SC(C)C)n2)cc1OC [Compound 26, 4-(4-Chlorophenyl)-2-(isopropylthio)-6-(3,4-dimethoxyphenyl)pyrimidine]
Wound Width ±SD 0 h [3]: 1.01±0.02 mm | Wound Width ±SD 24 h [3]: 0.76±0.04 mm | Wound closure % 24 h [3]: 25% | Wound Width ±SD 48 h [3]: 0.51±0.03 mm | Wound closure % 48 h [3]: 49.7% | Wound Width ±SD 72 h [3]: 0 mm | Wound closure % 72 h [3]: 100% | Migration rate [3]: 0.013

C=CCSc1nc(-c2ccc(Cl)cc2)cc(-c2ccc(OC)c(OC)c2)n1 [Compound 27, 2-(Allylthio)-4-(4-chlorophenyl)-6-(3,4-dimethoxyphenyl)pyrimidine]
Wound Width ±SD 0 h [3]: 1±0.02 mm | Wound Width ±SD 24 h [3]: 0.88±0.03 mm | Wound closure % 24 h [3]: 11.3% | Wound Width ±SD 48 h [3]: 0.66±0.03 mm | Wound closure % 48 h [3]: 34% | Wound Width ±SD 72 h [3]: 0.2±0.18 mm | Wound closure % 72 h [3]: 80% | Migration rate [3]: 0.011

COc1ccc(CSc2nc(-c3ccc(Cl)cc3)cc(-c3ccc(OC)c(OC)c3)n2)cc1 [Compound 29, 2-(4-Methoxybenzylthio)-4-(4-chlorophenyl)-6-(3,4-dimethoxyphenyl)pyrimidine]
Wound closure % 24 h [1]: 11% | Wound closure % 48 h [1]: 34% | Wound closure % 72 h [1]: 80% | Bax Conc [2]: 278 pg/mL and 278 ± 5 pg/mL | Bax Fold change ([2]; compared to untreated A-549 cancer cells): 35 fold
